{
  "source": "patent US11332485B2",
  "about": "“Penicillin-binding protein inhibitors” (priority 2017, dated 2022)",
  "key": {"E. coli K12 PBP1a": {"target": "T1, E. coli K12 PBP1a (Escherichia coli, UniProt P02918)", "T1 construct": "100 μg's of total membrane protein extracts containing PBPs; endogenous in cells; host or cells: Escherichia coli K12 membrane fraction", "T1 sequence (P02918 whole entry)": "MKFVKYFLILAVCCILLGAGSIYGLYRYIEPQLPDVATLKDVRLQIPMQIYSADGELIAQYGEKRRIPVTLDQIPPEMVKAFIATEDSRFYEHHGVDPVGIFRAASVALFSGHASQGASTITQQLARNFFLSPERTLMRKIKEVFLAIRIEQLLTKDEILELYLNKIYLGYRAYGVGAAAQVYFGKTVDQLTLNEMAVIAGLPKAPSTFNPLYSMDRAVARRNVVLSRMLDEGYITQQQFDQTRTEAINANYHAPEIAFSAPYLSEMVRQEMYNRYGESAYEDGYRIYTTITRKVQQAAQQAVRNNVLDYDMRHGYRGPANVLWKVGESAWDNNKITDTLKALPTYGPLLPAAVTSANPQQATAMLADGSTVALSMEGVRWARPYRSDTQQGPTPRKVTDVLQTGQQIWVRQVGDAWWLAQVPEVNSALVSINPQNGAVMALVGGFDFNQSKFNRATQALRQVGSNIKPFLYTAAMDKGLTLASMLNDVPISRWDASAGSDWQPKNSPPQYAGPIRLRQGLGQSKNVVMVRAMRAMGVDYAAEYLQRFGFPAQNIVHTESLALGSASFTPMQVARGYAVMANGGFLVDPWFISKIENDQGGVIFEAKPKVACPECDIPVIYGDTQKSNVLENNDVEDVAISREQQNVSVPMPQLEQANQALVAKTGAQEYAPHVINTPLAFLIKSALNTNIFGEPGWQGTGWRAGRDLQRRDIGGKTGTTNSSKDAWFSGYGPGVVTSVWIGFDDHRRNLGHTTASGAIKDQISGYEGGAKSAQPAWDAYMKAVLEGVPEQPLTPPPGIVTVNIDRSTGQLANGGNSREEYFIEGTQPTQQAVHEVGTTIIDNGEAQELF", "assay": "Bocillin FL competition binding assay (SDS-PAGE gel, membrane PBPs)", "details": "15 min. pre-incubation, membrane protein extracts, SDS-PAGE fluorescence scan", "protocol": "(§1) To determine the ability of test compounds to bind Penicillin Binding Proteins (PBPs), a competition binding assay using Bocillin FL (fluorescent derivative of penicillin V) was adapted from the classical method used to assess PBP potency of beta-lactams.\n(§2) Penicillin binding proteins were isolated from Escherichia coli K12 by growth of Escherichia coli K12 from a single colony in 4 L of Luria-Bertani (LB) broth at 35° C. and 250 rpm to an OD600 nm of 0.5. The cells were harvested by centrifugation at 7,000×g for 10 min. at 4° C. Cells were resuspended and washed in 50 mM potassium phosphate pH 7.5. The cells were re-suspended in sonication buffer [50 mM Tris-HCl pH 7.5, 1 mM MgCl2, 1 mM beta-mercaptoethanol, and 5 μg/mL DNAse I] and sonicated by 4 passes of 30 seconds at 45 W on ice. The sample was clarified by centrifugation at 3,000×g to remove cell debris and unbroken cells and supernatant containing the membrane proteins was retained. The membrane proteins including the PBPs were further purified from soluble constituents by an ultracentrifugation step at 100,000×g for 30 min. at 4° C. The membrane proteins are washed twice with 10 mM sodium phosphate pH 7, resuspended in a volume of 5 mL, quantitated by BCA assay, adjusted to […] and frozen at −80° C. until use.\n(§3) The adapted Bocillin FL competition binding assay described herein incorporates a 15 min. pre-incubation of test compound with isolated PBPs to attempt to balance the difference in mechanism of inhibition between beta-lactams (largely irreversible covalent bond to active site Serine) and the boron-containing PBP inhibitor test compounds (reversible covalent bond to active site Serine). Briefly, 50 μL reactions consisted of 100 μg's of total membrane protein extracts containing PBPs incubated with a dilution series of test compound ranging from 0.005 μg/mL to 2,480 μg/mL in 10 mM sodium phosphate pH7 containing 350 mM NaCl. Thirty minute reactions at 35° C. were initiated by addition of […] Bocillin FL, quenched by addition of SDS-PAGE loading buffer containing sodium dodecyl sulfate (SDS) and heated for 15 minutes at 95° C. to denature proteins in preparation for SDS-polyacrylamide gel electrophoresis. The Bocillin FL labeled PBPs are then separated by SDS-PAGE in Novex NuPage 10% Bis-Tris pre-cast gels (Invitrogen). The SDS-PAGE gel, post-electrophoresis, is then washed in water to remove excess SDS for 10 minutes at room temperature and placed on the scanning bed of a GE Healthcare/Amersham Biosciences Storm 860 fluorescence scanner. […] Effective PBP inhibitors are detected by a reduction in Bocillin FL labeling of the particular PBP over the dose range of test compound in a dose-responsive manner. […]"}, "E. coli PBP3": {"target": "T2, E. coli PBP3 (Escherichia coli, UniProt P0AD68)", "T2 construct": "100 μg's of total membrane protein extracts containing PBPs; endogenous in cells; host or cells: Escherichia coli K12 membrane fraction", "T2 sequence (P0AD68 1-577)": "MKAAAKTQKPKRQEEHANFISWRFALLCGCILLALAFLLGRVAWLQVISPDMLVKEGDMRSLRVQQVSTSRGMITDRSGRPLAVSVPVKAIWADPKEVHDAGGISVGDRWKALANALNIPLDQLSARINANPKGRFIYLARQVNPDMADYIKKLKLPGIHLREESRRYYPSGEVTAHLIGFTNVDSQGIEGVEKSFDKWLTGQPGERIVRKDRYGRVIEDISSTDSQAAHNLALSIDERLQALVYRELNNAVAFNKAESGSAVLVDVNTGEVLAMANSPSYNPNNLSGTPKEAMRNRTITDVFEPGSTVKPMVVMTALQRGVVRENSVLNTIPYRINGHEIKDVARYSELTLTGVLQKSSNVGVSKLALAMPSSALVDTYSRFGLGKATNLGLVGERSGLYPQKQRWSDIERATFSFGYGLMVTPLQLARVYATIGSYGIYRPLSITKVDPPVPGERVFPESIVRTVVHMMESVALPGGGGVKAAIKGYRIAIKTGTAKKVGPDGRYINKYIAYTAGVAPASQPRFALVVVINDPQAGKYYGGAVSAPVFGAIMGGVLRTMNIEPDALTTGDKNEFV", "assay": "Bocillin FL competition binding assay (SDS-PAGE gel, membrane PBPs)", "details": "15 min. pre-incubation, membrane protein extracts, SDS-PAGE fluorescence scan", "protocol": "as §1, §2, §3"}, "E. coli PBP1b": {"test_system": "E. coli PBP1b", "assay": "Bocillin FL competition binding assay (SDS-PAGE gel, membrane PBPs)", "design": "species or system Escherichia coli", "details": "15 min. pre-incubation, membrane protein extracts, SDS-PAGE fluorescence scan", "protocol": "as §1\nPenicillin binding proteins were isolated from Escherichia coli K12 by growth of Escherichia coli K12 from a single colony in 4 L of Luria-Bertani (LB) broth at 35° C. and 250 rpm to an OD600 nm of 0.5. The cells were harvested by centrifugation at 7,000×g for 10 min. at 4° C. Cells were resuspended and washed in 50 mM potassium phosphate pH 7.5. […] The membrane proteins are washed twice with 10 mM sodium phosphate pH 7, resuspended in a volume of 5 mL, quantitated by BCA assay, adjusted to 10 μg/mL and frozen at −80° C. until use.\nThe adapted Bocillin FL competition binding assay described herein incorporates a 15 min. pre-incubation of test compound with isolated PBPs to attempt to balance the difference in mechanism of inhibition between beta-lactams (largely irreversible covalent bond to active site Serine) and the boron-containing PBP inhibitor test compounds (reversible covalent bond to active site Serine). […] The SDS-PAGE gel, post-electrophoresis, is then washed in water to remove excess SDS for 10 minutes at room temperature and placed on the scanning bed of a GE Healthcare/Amersham Biosciences Storm 860 fluorescence scanner. […]"}, "E. coli DH5α/pLBII": {"test_system": "E. coli DH5α/pLBII", "assay": "Broth microdilution MIC assay, empty vector control strain", "format": "cell-based", "details": "Escherichia coli, read-out: E. coli DH5α/pLBII Microbiological Activity (MIC)", "outline": "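CLSI broth microdilution in cation-supplemented Mueller-Hinton broth, 2-fold compound dilutions, 5×10^5 CFU/mL inoculum, 16-20 h at 37° C, MIC read visually as lowest concentration without growth. E. coli DH5α carries CTX-M15 on pLBII under Lac promoter, or empty pLBII as control.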"}},
  "data": [
    {"smiles": "CCN1CCN(C(=O)NC(C(=O)N[C@H]2Cc3cccc(C(=O)O)c3OB2O)c2csc(N)n2)C(=O)C1=O", "note": "(stereo partly drawn) [Example 12, (3R)-3-(2-(2-aminothiazol-4-yl)-2-(4-ethyl-2,3-dioxopiperazine-1-carboxamido)acetamido)-2-hydroxy-3,4-dihydro-2H-benzo[e][1,2]oxaborinine-8-carboxylic acid]", "values": [
      {"measurement": "E. coliK12 PBP1a Potency", "setting": "E. coli K12 PBP1a", "value": "B (B represents a potency between 64 and 1000 μg/mL inclusive)"},
      {"measurement": "E. coli PBP3 Potency", "setting": "E. coli PBP3", "value": "A (A represents a potency of >1000 μg/mL)"},
      {"measurement": "E. coli PBP1b Potency", "setting": "E. coli PBP1b", "value": "C (C represents a potency of <64 μg/mL)"},
      {"measurement": "MIC", "setting": "E. coli DH5α/pLBII", "value": "8 to 16", "unit": "µg/mL"}
    ]}
  ]
}
